Experimental data reported in ChEMBL document CHEMBL1121515 (J Med Chem, 1980).
Active and inactive are the calls of the source. The calls are words filed in the database; no cut-off is given here.

Columns and labels:
[1] = Lethal dose was measured in mice 0.5 hr post intraperitoneal administration; format: toxicity, organism-based; conditions: mouse, in vivo, ip
[2] = species on record: Rattus norvegicus; experiment: Conditioned avoidance response (CAR) was measured in rats; I = inactive; format: functional, organism-based
[3] = species on record: Mus musculus; experiment: Relative CNS activity of compound was measured in mice (++ =for activity in 4-5 assays); format: functional, organism-based; conditions: Central nervous system
[4] = species on record: Mus musculus; experiment: Relative CNS activity of compound was measured in mice; (-) </= […]; format: functional, Central nervous system
[5] = tested on: Rattus norvegicus; experiment: Conditioned avoidance response (CAR) was measured in rats at 20 mg/kg; A = active; format: functional, organism-based; design: dose 20 mg/kg
[6] = tested on: Rattus norvegicus; experiment: Conditioned avoidance response (CAR) was measured in rats at 10 mg/kg; I = inactive; format: functional, organism-based; design: dose 10 mg/kg
[7] = tested on: Rattus norvegicus; experiment: Conditioned avoidance response (CAR) was measured in rats at 10 mg/kg; Inactive; format: functional, organism-based; design: dose 10 mg/kg
[8] = species on record: Mus musculus; experiment: Relative CNS activity of compound was measured in mice (for activity in 2-3 assays); format: functional, organism-based; conditions: Central nervous system
[9] = tested on: Rattus norvegicus; experiment: Conditioned avoidance response (CAR) was measured in rats at 40 mg/kg; Active; format: functional, organism-based; design: dose 40 mg/kg
[10] = tested on: Rattus norvegicus; experiment: Conditioned avoidance response (CAR) was measured in rats at 10 mg/kg;I = inactive; format: functional, organism-based; design: dose 10 mg/kg
[11] = species on record: Mus musculus; experiment: Relative CNS activity of compound was measured in mice (+++ =for activity in > 6 assays); format: functional, organism-based; conditions: Central nervous system
[12] = tested on: Rattus norvegicus; experiment: Conditioned avoidance response (CAR) was measured in rats at 40 mg/kg;A = active; format: functional, organism-based; design: dose 40 mg/kg
[13] = tested on: Rattus norvegicus; experiment: Conditioned avoidance response (CAR) was measured in rats at 40 mg/kg; A = active; format: functional, organism-based; design: dose 40 mg/kg
[14] = species on record: Rattus norvegicus; experiment: Conditioned avoidance response (CAR) was measured in rats; Inactive; format: functional, organism-based
[15] = tested on: Rattus norvegicus; experiment: Conditioned avoidance response (CAR) was measured in rats at 5 mg/kg doses; I = inactive; format: functional, organism-based; design: dose 5 mg/kg
[16] = tested on: Rattus norvegicus; experiment: Conditioned avoidance response (CAR) was measured in rats at 20 mg/kg doses; I = inactive; format: functional, organism-based; design: dose 20 mg/kg

Br.CC1Cc2cccc(-c3ccccc3)c2CN1C (configuration not stated)
LD50 at 0.5 h [1]: < 320 mg/kg
CAR [2]: inactive
Activity [3]: Active

Cl.c1ccc(-c2cccc3c2CNCC3)cc1
Activity [4]: <=1
CAR [5]: Active
LD50 at 0.5 h [1]: 82 mg/kg
CAR [6]: inactive

COc1cccc(-c2cccc3c2CN(C)CC3)c1.Cl
CAR [7]: inactive
Activity [8]: Weak activity
LD50 at 0.5 h [1]: 156 mg/kg
CAR [9]: Active

COc1ccccc1-c1cccc2c1CNCC2.Cl
LD50 at 0.5 h [1]: 81 mg/kg
Activity [3]: Active

CN1CCc2cccc(-c3ccccc3)c2C1.O=C(O)/C=C/C(=O)O
CAR [10]: inactive
Activity [11]: Weak activity
LD50 at 0.5 h [1]: < 320 mg/kg
CAR [12]: Active

CC1Cc2cccc(-c3ccccc3)c2CN1Cc1ccccc1.Cl (configuration not stated)
CAR [13]: Active
CAR [10]: inactive
Activity [8]: Weak activity
LD50 at 0.5 h [1]: 227 mg/kg

COc1ccccc1-c1cccc2c1CN(Cc1ccccc1)CC2.Cl
Activity [4]: <=1
CAR [14]: inactive
LD50 at 0.5 h [1]: > 160 mg/kg

COc1cccc(-c2cccc3c2CNCC3)c1.Cl
CAR [7]: inactive
LD50 at 0.5 h [1]: < 160 mg/kg
CAR [9]: Active
Activity [3]: Active

Cl.c1ccc(CN2CCc3cccc(-c4ccccc4)c3C2)cc1
Activity [4]: <=1
LD50 at 0.5 h [1]: 158 mg/kg
CAR [2]: inactive

COc1ccccc1-c1cccc2c1CN(C)CC2.Cl
Activity [4]: <=1
CAR [7]: inactive
LD50 at 0.5 h [1]: 81 mg/kg
CAR [9]: Active

COc1cccc(-c2cccc3c2CN(Cc2ccccc2)CC3)c1.Cl
Activity [4]: <=1
CAR [14]: inactive
LD50 at 0.5 h [1]: > 320 mg/kg

CC1Cc2cccc(-c3ccccc3)c2CN1.Cl (configuration not stated)
CAR [15]: inactive
Activity [4]: <=1
CAR [16]: inactive
LD50 at 0.5 h [1]: 146 mg/kg
